Measurements as given in patent publication US20200283384A1, “ANTIBACTERIAL COMPOUNDS AND METHODS OF USE THEREOF” (Wayne State University, priority 2016, published 2020).

System: S. aureus clinical isolates
Experiment: Synergistic effect with oxacillin (oxacillin MIC alone and in presence of SIC)
Assay type: cell-based, Staphylococcus aureus
Conditions: for Synergistic activity in combination with oxacillin: S. aureus clinical isolates, compound at SIC
Method: The synergistic effect (interaction) of HN18 and HN34 with different antibiotics against S. aureus clinical isolates was studied. The oxacillin MIC values of 8 clinical isolates of Staphylococcus aureus were determined. The oxacillin MIC of the same isolates were also determined after they were exposed to SIC of HN18, HN34 (Table 5). […] Column 2 and 3 show the oxacillin MIC value of the same isolates in presence of SIC of HN18 and HN34 respectively.

Structure (SMILES)	Synergistic activity in combination with oxacillin	Oxacillin MIC in presence of SIC of the compound (1 μg/ml) (isolate SA3, experiment I)	Oxacillin MIC in presence of SIC of the compound (1 μg/ml) (isolate SA3, experiment II)	Oxacillin MIC in presence of SIC of the compound (1 μg/ml) (isolate SA4, experiment I)	Oxacillin MIC in presence of SIC of the compound (1 μg/ml) (isolate SA4, experiment II)	Oxacillin MIC in presence of SIC of the compound (1 μg/ml) (isolate SA5, experiment I)	Oxacillin MIC in presence of SIC of the compound (1 μg/ml) (isolate SA5, experiment II)	Oxacillin MIC in presence of SIC of the compound (1 μg/ml) (isolate SA9, experiment I)	Oxacillin MIC in presence of SIC of the compound (1 μg/ml) (isolate SA9, experiment II)	Oxacillin MIC in presence of SIC of the compound (1 μg/ml) (isolate SA10, experiment I)	Oxacillin MIC in presence of SIC of the compound (1 μg/ml) (isolate SA10, experiment II)	Oxacillin MIC in presence of SIC of the compound (1 μg/ml) (isolate SA11, experiment I)	Oxacillin MIC in presence of SIC of the compound (1 μg/ml) (isolate SA11, experiment II)	Oxacillin MIC in presence of SIC of the compound (1 μg/ml) (isolate SA15, experiment I)	Oxacillin MIC in presence of SIC of the compound (1 μg/ml) (isolate SA15, experiment II)	Oxacillin MIC in presence of SIC of the compound (1 μg/ml) (isolate SA18, experiment I)	Oxacillin MIC in presence of SIC of the compound (1 μg/ml) (isolate SA18, experiment II)
Fc1ccc(C(C2=CNC3C=CC=CC23)C2=C3C=CC=CC3NC2)cc1F (stereo not shown) [HN18, 3-((3,4-difluorophenyl)(2,7a-dihydro-1H-indol-3-yl)methyl)-3a,7a-dihydro-1H-indole]	decrease in the oxacillin MIC	0.5 µg/mL	0.5 µg/mL	0.5 µg/mL	1 µg/mL	0.03 µg/mL	0.03 µg/mL	2 µg/mL	4 µg/mL	<0.03 µg/mL	<0.03 µg/mL	<0.03 µg/mL	<0.03 µg/mL	<0.03 µg/mL	<0.03 µg/mL	<0.03 µg/mL	<0.03 µg/mL
Cc1[nH]c2ccccc2c1C(c1ccc(F)c(F)c1)c1c(C)[nH]c2ccccc12 [HN34]	did not show synergistic activity	>16 µg/mL	>16 µg/mL	>16 µg/mL	>16 µg/mL	16 µg/mL	>16 µg/mL	>16 µg/mL	>16 µg/mL	16 µg/mL	16 µg/mL	16 µg/mL	8 µg/mL	16 µg/mL	>16 µg/mL	>16 µg/mL	>16 µg/mL
